Values of other authors in patent publication US8881894B2, “Multiple-compartment applicator” (Sonovia Holdings LLC, priority 2008, dated 2014).

Details: in water

Compound: O=C1O[C@H]([C@@H](O)CO)C(O)=C1O [L-Ascorbic acid]
- pK of acid-ionizable hydrogen: 4.2
